Assay results reported in PubChem BioAssay (NCI).
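A five-concentration, 48-hour dose response in 96-well plates underlies each endpoint, interpolated linearly between surrounding concentrations. TGI: concentration producing complete growth inhibition.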

How the values were obtained:
Assay in all cases: growth of human tumour cells (NCI), 48 h
786-0 renal = system: 786-0 renal
A498 renal = system: A498 renal
A549 NSCLC = system: A549 NSCLC
ACHN renal = system: ACHN renal
CAKI-1 renal = system: CAKI-1 renal
CCRF-CEM leukemia = system: CCRF-CEM leukemia
COLO 205 colon = system: COLO 205 colon
DLD-1 colon = system: DLD-1 colon
DMS 114 small cell lung = system: DMS 114 small cell lung
DMS 273 small cell lung = system: DMS 273 small cell lung
EKVX NSCLC = system: EKVX NSCLC
HCC-2998 colon = system: HCC-2998 colon
HCT-116 colon = system: HCT-116 colon
HCT-15 colon = system: HCT-15 colon
HOP-18 NSCLC = system: HOP-18 NSCLC
HOP-62 NSCLC = system: HOP-62 NSCLC
HOP-92 NSCLC = system: HOP-92 NSCLC
HT29 colon = system: HT29 colon
IGROV1 ovarian = system: IGROV1 ovarian
K-562 leukemia = system: K-562 leukemia
KM12 colon = system: KM12 colon
KM20L2 colon = system: KM20L2 colon
LOX IMVI melanoma = system: LOX IMVI melanoma
LXFL 529 NSCLC = system: LXFL 529 NSCLC
M14 melanoma = system: M14 melanoma
M19-MEL melanoma = system: M19-MEL melanoma
MALME-3M melanoma = system: MALME-3M melanoma
MOLT-4 leukemia = system: MOLT-4 leukemia
NCI-H23 lung = system: NCI-H23 lung
NCI-H460 lung = system: NCI-H460 lung
NCI-H522 lung = system: NCI-H522 lung
OVCAR-3 ovarian = system: OVCAR-3 ovarian
OVCAR-4 ovarian = system: OVCAR-4 ovarian
OVCAR-5 ovarian = system: OVCAR-5 ovarian
OVCAR-8 ovarian = system: OVCAR-8 ovarian
RPMI-8226 leukemia = system: RPMI-8226 leukemia
RXF 393 renal = system: RXF 393 renal
RXF-631 renal = system: RXF-631 renal
SF-268 CNS = system: SF-268 CNS
SF-295 CNS = system: SF-295 CNS
SF-539 CNS = system: SF-539 CNS
SK-MEL-2 melanoma = system: SK-MEL-2 melanoma
SK-MEL-28 melanoma = system: SK-MEL-28 melanoma
SK-MEL-5 melanoma = system: SK-MEL-5 melanoma
SK-OV-3 ovarian = system: SK-OV-3 ovarian
SN12C renal = system: SN12C renal
SNB-19 CNS = system: SNB-19 CNS
SNB-75 CNS = system: SNB-75 CNS
SNB-78 CNS = system: SNB-78 CNS
SW-620 colon = system: SW-620 colon
TK-10 renal = system: TK-10 renal
U251 CNS = system: U251 CNS
UACC-257 melanoma = system: UACC-257 melanoma
UACC-62 melanoma = system: UACC-62 melanoma
UO-31 renal = system: UO-31 renal
XF 498 CNS = system: XF 498 CNS

Measured: TGI

Cc1cc(NS(=O)(=O)c2ccc(Nc3c4ccccc4nc4c(C(=O)Nc5ccc(S(=O)(=O)N=C(N)N)cc5)cccc34)cc2)no1
> 100 µM: all assays above
